Tests used:
PDK1 = molecular target: T1, PDK1 (Homo sapiens, UniProt O15530); assay: Test for the inhibition of PDK1 (384-well flashplate, 33P-ATP); assay type: biochemical; details: His6-PDK1 3.4 nM, 4 μM ATP, 30° C., 60 min
T1 construct: His6 (N)
T1 sequence (O15530 51-556 limits assumed): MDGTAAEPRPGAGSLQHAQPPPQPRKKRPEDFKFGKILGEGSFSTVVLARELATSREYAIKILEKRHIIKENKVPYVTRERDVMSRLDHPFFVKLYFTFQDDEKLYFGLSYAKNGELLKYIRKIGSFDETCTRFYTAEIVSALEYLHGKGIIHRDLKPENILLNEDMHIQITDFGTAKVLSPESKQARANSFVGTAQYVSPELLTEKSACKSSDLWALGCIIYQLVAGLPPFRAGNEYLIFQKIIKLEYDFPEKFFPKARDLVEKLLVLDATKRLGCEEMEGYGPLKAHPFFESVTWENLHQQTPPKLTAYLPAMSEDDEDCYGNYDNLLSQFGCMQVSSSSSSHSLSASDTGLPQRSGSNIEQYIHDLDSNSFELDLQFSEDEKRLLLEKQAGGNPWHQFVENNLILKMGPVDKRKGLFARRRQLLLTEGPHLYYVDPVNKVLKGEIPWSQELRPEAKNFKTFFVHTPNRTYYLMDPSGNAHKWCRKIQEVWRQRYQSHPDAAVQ
Protocol: 4.0 Test for the Inhibition of PDK1
The experimental batches are carried out in a flashplate system with 384 wells/microtitration plate.
In each case, the PDK1 sample His6-PDK1(1-50)(3.4 nM), the PDK1 substrate biotin-bA-bA-[…] (400 nM), 4 μM ATP (with 0.2 μCi of ^33P-ATP/well) and the test substance in 50 μl of conventional experimental solution per well are incubated at 30° C. for 60 min. The test substances are employed in corresponding concentrations (if desired in a dilution series). The control is carried out without test substance. The reaction is stopped using standard methods and washed. The activity of the kinase is measured via the incorporated radioactivity in top count. In order to determine the non-specific kinase reaction (blank value), the experimental batches are carried out in the presence of 100 nM staurosporin.
The radioactivity (decompositions per minute) of the blank value (no use of test substance in the presence of staurosporin) is subtracted from all other radioactivity values. The controls (kinase activity without test substance) are set equal to 100 percent and all other radioactivity values (after subtracting the blank value) are expressed set in relation thereto (for example in % of the control).
IC50 values (50% inhibition) are determined with the aid of statistics programmes, such as, for example, RS1.

[1] = test system: PDK1 kinase activity (P-T308-PKB) in PC3 cells; assay: Cellular testing of PDK1 kinase inhibitors (Luminex assay, P-T308-PKB in PC3 cells); assay type: cell-based; details: Homo sapiens, PC-3, 0.5 h, serum-free, 30 min with test substance
Protocol: Description of the Method for Cellular Testing of PDK1 Kinase Inhibitors
The cellular assay for determination of the PDK1 kinase activity is performed as Luminex assay in the 96-well format. PC3 cells are sown at 20,000 cells per well in 100 μl of medium (45% of […]/45% of Ham's F12/10% of FCS) and incubated under serum-free conditions on the following day for 30 min with serial dilution of the test substance (7 concentrations). The cells are subsequently lysed using 90 μl of lysis buffer (20 mM Tris/HCl pH 8.0, 150 mM NaCl, 1% of NP40, 10% of glycerol, 1% of phosphatase inhibitor I, 1% of phosphatase inhibitor II, 0.1% of protease inhibitor Cocktail III, 0.01% of benzonase) per well, and the lysates are separated off from insoluble cell constituents by means of centrifugation through a 96-well filter plate (0.65 μm). The lysates are incubated overnight at 4° C. with shaking with Luminex beads to which an anti-total PKB antibody has been coupled. Detection is carried out on the following day by addition of a P-T308-PKB antibody and a species-specific PE-labelled secondary antibody. The determination of P-T308-PKB is carried out by measurement in the Luminex100 instrument by determination of 100 events per cavity in a measurement time of 60 sec. As pharmacological blank, the signals obtained from cells which have been treated with 10 μM staurosporin are subtracted from all other batches. The control value used for maximum phosphorylation of PKB on T308 are the signals from cells which have been treated only with the solvent (0.3% of DMSO). The values of the batches treated with test substance are calculated from this as percent of control, and IC50 values are determined by means of RS1.

SMILES	IC50 (PDK1) [nM]	IC50 [1] [nM]
CC(c1ccc(CO)cc1)n1cc(-c2c[nH]c3ncc(-c4cnn(C)c4)cc23)nn1 (centres unmarked) [Compound A30, [4-(1-{4-[5-(1-Methyl-1H-pyrazol-4-yl)-1H-pyrrolo[2,3-b]pyridin-3-yl]-1,2,3-triazol-1-yl}-ethyl)phenyl]methanol]	0.5 to 1000	1000 to 10000
COc1cccc(Cn2cc(-c3c[nH]c4ncc(-c5cnn(C)c5)cc34)nn2)c1 [Compound A34, 3-[1-(3-Methoxybenzyl)-1H-1,2,3-triazol-4-yl]-5-(1-methyl-1H-pyrazol-4-yl)-1H-pyrrolo-[2,3-b]pyridine]	–	1000 to 10000
COc1ccnc2[nH]cc(-c3cn(Cc4ccccc4)nn3)c12 [Compound A15, 3-(1-benzyl-1H-1,2,3-triazol-4-yl)-4-methoxy-1H-pyrrolo[2,3-b]-pyridine]	0.5 to 1000	–
CC(c1ccccc1)n1cc(-c2c[nH]c3ncc(-c4cnn(C)c4)cc23)nn1 (centres unmarked) [Compound A8, 5-(1-methyl-1H-pyrazol-4-yl)-3-[1-(1-phenylethyl)-1H-1,2,3-triazol-4-yl]-1H-pyrrolo[2,3-b]pyridine]	0.5 to 1000	1000 to 10000
Cn1cc(-c2cnc3[nH]cc(-c4cn(Cc5cccc(F)c5)nn4)c3c2)cn1 [Compound A5, 3-[1-(3-Fluorobenzyl)-1H-1,2,3-triazol-4-yl]-5-(1-methyl-1H-pyrazol-4-yl)-1H-pyrrolo-[2,3-b]pyridine]	0.5 to 1000	1000 to 10000
Clc1ccc(Cn2cc(-c3c[nH]c4ncccc34)nn2)cc1 [Compound A2, 3-[1-(4-chlorobenzyl)-1H-1,2,3-triazol-4-yl]-1H-pyrrolo[2,3-b]-pyridine]	1000 to 10000	–
CC(c1cccc(C(F)(F)F)c1)n1cc(-c2c[nH]c3ncc(-c4cnn(C)c4)cc23)nn1 (centres unmarked) [Compound A19, 5-(1-Methyl-1H-pyrazol-4-yl)-3-{1-[1-(3-trifluoromethylphenyl)ethyl]-1H-1,2,3-triazol-4-yl}-1H-pyrrolo[2,3-b]pyridine]	0.5 to 1000	1000 to 10000
Cn1cc(-c2cnc3[nH]cc(-c4cn(Cc5ccc(F)cc5)nn4)c3c2)cn1 [Compound A6, 3-[1-(4-Fluorobenzyl)-1H-1,2,3-triazol-4-yl]-5-(1-methyl-1H-pyrazol-4-yl)-1H-pyrrolo-[2,3-b]pyridine]	0.5 to 1000	1000 to 10000
COC(=O)c1cccc(Cn2cc(-c3c[nH]c4ncc(-c5cnn(C)c5)cc34)nn2)c1 [Compound A37, Methyl 3-{4-[5-(1-methyl-1H-pyrazol-4-yl)-1H-pyrrolo[2,3-b]pyridin-3-yl]-1,2,3-triazol-1-ylmethyl}benzoate]	–	1000 to 10000
Cn1cc(-c2cnc3[nH]cc(-c4cn(Cc5cccc(OC(F)F)c5)nn4)c3c2)cn1 [Compound A39, 3-[1-(3-Difluoromethoxybenzyl)-1H-1,2,3-triazol-4-yl]-5-(1-methyl-1H-pyrazol-4-yl)-1H-pyrrolo[2,3-b]pyridine]	–	1000 to 10000
Cn1cc(-c2cnc3[nH]cc(-c4cn(Cc5cccc(C(F)(F)F)c5F)nn4)c3c2)cn1 [Compound A22, 3-[1-(2-Fluoro-3-trifluoromethylbenzyl)-1H-1,2,3-triazol-4-yl]-5-(1-methyl-1H-pyrazol-4-yl)-1H-pyrrolo[2,3-b]pyridine]	0.5 to 1000	1000 to 10000
Cn1cc(-c2cnc3[nH]cc(-c4cn(Cc5ccncc5F)nn4)c3c2)cn1 [Compound A32, 3-[1-(3-Fluoropyridin-4-ylmethyl)-1H-1,2,3-triazol-4-yl]-5-(1-methyl-1H-pyrazol-4-yl)-1H-pyrrolo[2,3-b]pyridine]	–	1000 to 10000
Cc1[nH]c2ncccc2c1-c1cn(Cc2ccccc2)nn1 [Compound A3, 3-(1-Benzyl-1H-1,2,3-triazol-4-yl)-2-methyl-1H-pyrrolo[2,3-b]pyridine]	0.5 to 1000	–
Cn1cc(-c2cnc3[nH]cc(-c4cn(Cc5ccccc5C#N)nn4)c3c2)cn1 [Compound A38, 2-{4-[5-(1-Methyl-1H-pyrazol-4-yl)-1H-pyrrolo[2,3-b]pyridin-3-yl]-1,2,3-triazol-1-yl-methyl}benzonitrile]	–	0.5 to 1000
Cn1cc(-c2cnc3[nH]cc(-c4cn(Cc5ccccc5CO)nn4)c3c2)cn1 [Compound A35, (2-{4-[5-(1-Methyl-1H-pyrazol-4-yl)-1H-pyrrolo[2,3-b]pyridin-3-yl]-1,2,3-triazol-1-ylmethyl}phenyl)methanol]	–	1000 to 10000
Cn1cc(-c2cnc3[nH]cc(-c4cn(C(CC(=O)O)c5ccccc5)nn4)c3c2)cn1 (centres unmarked) [Compound A28, 3-{4-[5-(1-Methyl-1H-pyrazol-4-yl)-1H-pyrrolo[2,3-b]pyridin-3-yl]-1,2,3-triazol-1-yl}-3-phenylpropionic acid]	0.5 to 1000	–
CC(c1ccc(C(=O)O)cc1)n1cc(-c2c[nH]c3ncc(-c4cnn(C)c4)cc23)nn1 (centres unmarked) [Compound A27, 4-(1-{4-[5-(1-Methyl-1H-pyrazol-4-yl)-1H-pyrrolo[2,3-b]pyridin-3-yl]-1,2,3-triazol-1-yl}-ethyl)benzoic acid]	0.5 to 1000	–
Cn1cc(-c2cnc3[nH]cc(-c4cn(Cc5ccc(C(F)(F)F)cc5F)nn4)c3c2)cn1 [Compound A26, 3-[1-(2-Fluoro-4-trifluoromethylbenzyl)-1H-1,2,3-triazol-4-yl]-5-(1-methyl-1H-pyrazol-4-yl)-1H-pyrrolo[2,3-b]pyridine]	0.5 to 1000	1000 to 10000
Cn1cc(-c2cnc3[nH]cc(-c4cn(Cc5ccc(OC(F)F)cc5)nn4)c3c2)cn1 [Compound A36, 3-[1-(4-Difluoromethoxybenzyl)-1H-1,2,3-triazol-4-yl]-5-(1-methyl-1H-pyrazol-4-yl)-1H-pyrrolo[2,3-b]pyridine]	–	1000 to 10000
c1ccc(Cn2cc(-c3c[nH]c4ncccc34)nn2)cc1 [Compound A1, 3-(1-benzyl-1H-1,2,3-triazol-4-yl)-1H-pyrrolo[2,3-b]pyridine]	0.5 to 1000	–
Cn1cc(-c2cnc3[nH]cc(-c4cn(Cc5ccc(F)cc5F)nn4)c3c2)cn1 [Compound A21, 3-[1-(2,4-Difluorobenzyl)-1H-1,2,3-triazol-4-yl]-5-(1-methyl-1H-pyrazol-4-yl)-1H-pyrrolo-[2,3-b]pyridine]	0.5 to 1000	1000 to 10000
Cn1cc(-c2cnc3[nH]cc(-c4cn(Cc5c(F)cccc5C(F)(F)F)nn4)c3c2)cn1 [Compound A24, 3-[1-(2-Fluoro-6-trifluoromethylbenzyl)-1H-1,2,3-triazol-4-yl]-5-(1-methyl-1H-pyrazol-4-yl)-1H-pyrrolo[2,3-b]pyridine]	0.5 to 1000	1000 to 10000
Cn1cc(-c2cnc3[nH]cc(-c4cn(CC(O)c5ccccc5)nn4)c3c2)cn1 (centres unmarked) [Compound A31, 2-{4-[5-(1-Methyl-1H-pyrazol-4-yl)-1H-pyrrolo[2,3-b]pyridin-3-yl]-1,2,3-triazol-1-yl}-1-phenylethanol]	0.5 to 1000	1000 to 10000
Cn1cc(-c2cnc3[nH]cc(-c4cn(Cc5cccc(Cl)c5F)nn4)c3c2)cn1 [Compound A23, 3-[1-(3-Chloro-2-fluorobenzyl)-1H-1,2,3-triazol-4-yl]-5-(1-methyl-1H-pyrazol-4-yl)-1H-pyrrolo[2,3-b]pyridine]	0.5 to 1000	0.5 to 1000

Reference: patent US8541584B2, “3-(1,2,3-triazol-4-yl) pyrrolo [2,3-b] pyridine derivatives” (Merck Patent GmbH, priority 2009, dated 2013)
